Results reported in patent publication US7048943B2, “Carotenoid-loaded liposomes” (Yissum Research Development Company of the Hebrew …, priority 2001, dated 2006).
Values after ≈ are worked out from the molar mass of the structure shown. Each block holds one compound with its values, some of them ahead of it.

Tests used:
[1] = test system: Epidermal equivalents (normal, human-derived epidermal keratinocytes); assay: Protection against UV induced loss of viability (LDH release); type: cell-based
Procedure: (§1) Cell Culture • Epidermal equivalents (4.0 cm^2) were purchased from SkinEthic (Nice, France). Each equivalent served as a multilayered model of the epidermis consisting of normal, human-derived epidermal keratinocytes. Equivalents were cultured in a defined hydrocortisone and phenol red free medium supplied from SkinEthic. Instruments • Kontron (Switzerland) HPLC system. 425 pump, 430 detector, 460 automatic injector and 450 data analysis system. Column: LiChroCART®250-4, RP-select B (5 μm), Merck catalog no. […]
(§2) Twenty four hours post irradiation, the culture medium was collected from the treated epidermal equivalents and evaluated for IL-1α release levels using a commercially available ELISA kit. Cell viability was determined immediately post irradiation using LDH leakage measurments.
(§3) Epidermal Equivalents were purchased from SkinEthic (Nice, France) and cultured in phenol free, hydrocortisone free media. […] Forty-eight hours post irradiation, the medium beneath each equivalent was collected and analyzed for secreted IL-1α by ELISA (Endogen). LDH level (Boehringer Mannheim) was measured immediately post irradiation and after 48 hours to determine the effect of treatment and UV exposure on cell viability. […]

[2] = test system: Epidermal equivalents (normal, human-derived epidermal keratinocytes); assay: Protection against UV induced IL-1α release; type: cell-based; conditions: at 0.01%, UV irradiation
Procedure: as §1, §2, §3

[3] = Partition of lycopene in tri-phase system (soya oil / water / egg PC SUV); type: physicochemical; conditions: for Kp Lip/Oil: partition coefficient liposome/oil, liposomes 10% by weight; for Liposome/oil: ratio of lycopene in liposomal phase to oil phase; for Insoluble lycopene / lycopene concentration, Liposomal phase / lycopene concentration, Oil phase: soya oil / water / egg PC SUV, highest lycopene level; for lycopene concentration, Liposomal phase / lycopene concentration, Oil phase: mixed 2 hours at room temperature
Procedure: The partition coefficient of lycopene in tri-phase systems was also evaluated. Tri-phase systems may serve for the determination of availability of the lycopene into biological membranes. The system used herein was composed from […]: soya oil in which the lycopene was present and water in which liposomes (10% by weight) in the form of small unilamellar vesicles (SUV) composed of pure egg phosphatidyl choline are present as the third phase.
The small unilamellar liposomes (SUV) composed of pure lipid (Ludwigshafen, Germany) egg phosphatidylcholine (egg PC) of an 80 nm were prepared and characterized as described by Haran et al. [Haran G. et al. Biochim. Biophys. Acta 1151:201–215 (1993)]. SUV egg PC size was ˜80 nm. The partition coefficient in the three phase system was performed at three different levels of lycopene—low, medium and high amounts, using crystalline lycopene (originated from fungi), 92% powder (LycoRed), 75% powder lycopene (LycoRed) and oleoresin (containing 6.06% by weight of lycopene). In case of the highest level, lycopene from tomato concentrate (containing 0.073% lycopene) was also evaluated.
Preparation of the three phase systems included the following steps; first, lycopene was dispersed in soya oil (4 ml) by ultrasonic irradiation in an ultrasonic bath (35 kHz, 285W). Then, the precipitate was removed, aliquots of the oil were diluted in isopropanol with ratio ranging from 1:10 to 1:100 and the concentration of lycopene in oil phase was determined.
Then, to soya oil saturated with lycopene (1.5 ml) egg PC SUV in water (1.5 ml) were added to form the three phase system. The system was then mixed for 2 hours at room temperature using a flask shaker (A5-6021, St. John Associate Inc.), after which aliquots of the oil phase and the liposomal aqueous phase were removed.
In particular, the aqueous phase was extracted using heptane into which more than 98% of the lycopene was extracted. This extract was evaporated to dryness and the residue was dissolved in 200 μl isopropanol and analyzed by HPLC to determine the amount of lycopene present in the liquid and oil phase.
The concentration of lycopene in the liposome phase was calculated based on the procedure of Samuni and Barenholz [Samuni A. M. and Barenholz Y, Biol. Med. 22:1165–1174 (1996); Barenholz Y. et al. M. Biophys. J. 59:110–124 (1991)]. The following Table 4 summarizes the results obtained.

CD-1 Mice = assay: Oxazolone induced ear edema; type: in vivo; conditions: topical on left ear 1 hour after 2% oxazolone challenge, ear punch weight after 24 hours, versus vehicle group
Procedure: CD-1 Mice were induced with 3% oxazolone (Sigma) (30 mg/ml) made up in corn oil: acetone on a shaved abdomen. Five days later the mice were challenged with a 2% oxazolone (20 (mg/ml) in acetone on the left ear, right ear was untreated. One hour after challenging, the formulations examined (E1–E8) in a 70% EtOH/30% propylene glycol vehicle were applied onto the left ear. After 24 hours the mice were sacrificed and 7 mm ear punches were taken. The ear punches were placed on a scale and the difference between the treated and untreated ears was measured.
The percent inhibition was calculated by comparing the means of each group to the vehicle group. The positive control was hydrocortisone.

[4] = Entrapment of lycopene in MLV liposomes; type: physicochemical; conditions: liposomes composed of lipid/lycopene 10:1
Procedure: Method of Preparation—The phospholipids were dissolved in cyclohexane at a w/v ratio of 1 mg phospholipid per 10 ml cyclohexane. The dissolving required heating for several seconds at 60° C. and/or sonication for up to 3 minutes. Lycopene was added as powder to the solution, which was then vortexed. The resulting solution was lyophilized overnight and kept at −20° C. until use. To form multilamellar liposome (MLV), 2 ml of 0.9% NaCl were added to the lyophilizate followed by vortex to yield MLV encapsulated lycopene.
Method of Preparation—Lycopene was dissolved in cyclohexane at a w/v ratio of 1 mg of lycopene per 2 ml of cyclohexane. The dissolving required heating for several seconds at 60° C. and sonication for up to 3 minutes until all the lycopene was dissolved. The phospholipids were added as powder to the solution and the mixture was mixed with vortex. The solution was lyophilized overnight in bottles and closed in vacuum. The lyophilized bottles were kept at −20° C. until use.
To form MLV encapsulated lycopene, 2 ml of 0.9% NaCl were added followed by vortex. The percentage of entrapment of lycopene in the formulation was 85.31%.
In general, the population of the liposomes was heterogeneous. […] The 75% lycopene entrapment in liposomes composed of lipid/lycopene 10:1 was measured, wherein 17.5% of the lycopene was entrapped in the MLV. […]

[5] = Solubility of lycopene in organic solvents (saturation concentration, HPLC and absorbance at 472 nm)
Procedure: Lycopene Quantification—lycopene was analyzed for degradation and quantified by The HPLC buffer used comprised acetonitrile: methanol: methylene chloride: hexane and a ratio of 850:100:25:25 (all HPLC grade, Hoffman La Roche). Quantification was based on a standard curve obtained for lycopene (LycoRed standard. The amount of lycopene was also determined by absorbance at 472 nm.
All samples were diluted with ethanol before measurement. The saturation concentrations of the lycopene were determined by BPLC and by the use of a spectrophotometer (absorbance at 472 nm, where the area under the peak was measured). The saturation limit was defined as the concentration where a precipitate first appears. The concentration of lycopene at saturation was determined after removal of precipitate by high speed centrifugation from the absorbance at 472 nm (the λmax for the ‘red’ form of lycopene) using double beam UVikon 860 (Kontron, Switzerland) spectrometer.
Both types of lycopene were in a powder form before dissolving in cyclohexane. […] These measures were taken after a year and a half of storage at −20° C.

SMILES: O=C(O)CCCC[C@@H]1CCSS1 (racemic) [Lipoic Acid, lipoic acid]
Loss of viability (LDH), LDH release, protection ([1]; at 1%, UV irradiation (Table 7C)): 100% protection with 1%

SMILES: O=C1O[C@H]([C@@H](O)CO)C(O)=C1O [Ascorbic acid, ascorbic acid]
LDH Release, protection, First assay ([1]; at 0.01%, UV irradiation): 100% protection with 0.01%
IL-1α release, protection, First assay [2]: 100% protection with 0.01%

Kp Lip/Oil [3]: 0.00952
Liposome/oil [3]: 0.00095
Insoluble lycopene [3]: 6.9740 mμ
lycopene concentration, Liposomal phase [3]: 0.0001 mμ
lycopene concentration, Oil phase [3]: 0.1458 mμ
SMILES: CC(C)=CCC/C(C)=C/C=C/C(C)=C/C=C/C(C)=C/C=C/C=C(C)/C=C/C=C(C)/C=C/C=C(\C)CCC=C(C)C [Crystalline, lycopene, reference compound]

SMILES: C[C@]12CCC(=O)C=C1CC[C@@H]1[C@@H]2[C@@H](O)C[C@@]2(C)[C@H]1CC[C@]2(O)C(=O)CO [Hydrocortisone, hydrocortisone]
% inhibition (CD-1 Mice): 92.6%

Kp Lip/Oil [3]: 0.4141
Liposome/oil [3]: 0.0414
Insoluble lycopene [3]: 6.7084 mμ
lycopene concentration, Liposomal phase [3]: 0.0020 mμ
lycopene concentration, Oil phase [3]: 0.0495 mμ
SMILES: CC(C)=CCC/C(C)=C/C=C/C(C)=C/C=C/C(C)=C/C=C/C=C(C)/C=C/C=C(C)/C=C/C=C(\C)CCC=C(C)C [Power 92% Powder, lycopene]

lycopene entrapped in the MLV [4]: 17.5%
Kp Lip/Oil ([3]; listed as Powder 75%): 0.4972
Liposome/oil ([3]; listed as Powder 75%): 0.0497
Insoluble lycopene ([3]; listed as Powder 75%): 5.7899 mμ
lycopene concentration, Liposomal phase ([3]; listed as Powder 75%): 0.0062 mμ
lycopene concentration, Oil phase ([3]; listed as Powder 75%): 0.1239 mμ
maximal solubility in cyclohexane ([5]; after a year and a half of storage at −20° C.): 1960 µM
Concentration (mM)/HPLC ([5]; saturation in Cyclohexane): 0.22 mM
Concentration (mM)/HPLC ([5]; saturation in Soy oil): 0.14 mM
Concentration (mM)/HPLC ([5]; saturation in ethanol): 0.059 mM
Concentration (mM)/HPLC ([5]; saturation in i-propanol): 0.037 mM
Concentration (mM)/HPLC ([5]; saturation in n-hexane): 0.18 mM
Concentration (mM)/HPLC ([5]; saturation in t-butanol): 0.016 mM
SMILES: CC(C)=CCC/C(C)=C/C=C/C(C)=C/C=C/C(C)=C/C=C/C=C(C)/C=C/C=C(C)/C=C/C=C(\C)CCC=C(C)C [lycopene 75%, lycopene]

solubility ([5]; cyclohexane, organic solvent or mixture, thermodynamic from solid, maximal solubility in cyclohexane, after a year and a half of storage at −20° C.): 2650 µM (≈ 1420 µg/mL)
SMILES: CC(C)=CCC/C(C)=C/C=C/C(C)=C/C=C/C(C)=C/C=C/C=C(C)/C=C/C=C(C)/C=C/C=C(\C)CCC=C(C)C [lycopene 95%, lycopene]

solubility in an aqueous phase ([3]; conclusion from tri-phase system): very low, if any
SMILES: CC(C)=CCC/C(C)=C/C=C/C(C)=C/C=C/C(C)=C/C=C/C=C(C)/C=C/C=C(C)/C=C/C=C(\C)CCC=C(C)C [lycopene]
